According to US4880820A, “Guanine derivatives” (Merck & Co., Inc., priority 1988, dated 1989):
Converted amounts (≈) assume the structure as drawn. “Also recorded” adds a separate entry of the source.

Assays:
[1] = system: Herpes simplex virus Type 1 (Schooler); test: Method 1: inhibition of viral induced cytopathology in primary rabbit kidney cell cultures, HSV-1; format: cell-based; conditions: Human alphaherpesvirus 1; HSV-1 (Schooler), primary rabbit kidney cells; total suppression of cytopathology in 50% of cultures; read-out: Minimum Effective Concentration
Description: (§1) Method 1: Confluent monolayers of primary rabbit kidney cell cultures were refed with maintenance medium containing serial dilutions of the test compounds and incubated overnight at 37° C. At each dilution, four cultures were challenged with approximately 10 TCID50 HSV-1, four cultures were challenged with approximately 10 TCID50 HSV-2,and two cultures were left as toxicity controls. Cultures were reincubated at 37° C. and observed for viral induced cytopathology at days 5 and 7. Minimum Effective Concentration (μg/ml) is defined as the concentration of antiviral compound required to totally suppress the development of viral cytopathology in 50% of the infected rabbit kidney cell cultures.

[2] = system: Herpes simplex virus Type 2 (Curtis); test: Method 1: inhibition of viral induced cytopathology in primary rabbit kidney cell cultures, HSV-2; format: cell-based; conditions: Human alphaherpesvirus 2; HSV-2 (Curtis), primary rabbit kidney cells; total suppression of cytopathology in 50% of cultures; read-out: Minimum Effective Concentration
Description: as §1

[3] = system: Herpes simplex virus Type 1 (Schooler); test: Method 2: virus plaque reduction in MRC-5 cells, HSV-1; format: cell-based
Description: Method 2: Confluent monolayers of MRC-5 cells were incubated for one hour at 37° C. with 50-100 plaque forming units of the indicated virus. Following incubation, the cell monolayers were refed with maintenance medium containing 2% methyl cellulose and the chemical agent indicated. Duplicate cultures were incubated with each concentration of the chemical agent tested. Following further incubation for 3 days at 37° C., the monolayers were stained and the developed virus plaques were counted. The concentration (μg/ml) of each chemical agent which reduced plaque development by 50% (ED50) was determined.

[4] = system: Herpes simplex virus type 1 (HSV-1), strain Schooler; test: Parenteral (subcutaneous) treatment of Herpes simplex virus type 1 infection in mice; format: in vivo, ICR/Ha mice; conditions: for Avg. Survival Time / Percent Survival: s.c.
Description: (§2) Twenty gram ICR/Ha mice were injected intraperitoneally (ip) with 0.5 ml of a 10^-5 dilution of a stock preparation of Herpes simplex virus type 1 (HSV-1), strain Schooler. This virus challenge infected each animal with approximately 50 to 100 LD50. Starting immediately after virus infection and continuing twice daily for 4 days, each animal was injected subcutaneously in groups of 10 with: 125 μg, 31 μg, 8 μg or 2 μg of compounds A, B or C; or placebo (physiological saline, pH 11.5). All compounds were solubilized in physiological saline, pH 11.5. The mice were observed daily for 15 days at the same time each day and the day of death was recorded for each animal.
Statistical analyses [reference: Liddel, F.D.K., Evaluation of Survival in Challenge Experiments, Microbiol. Rev., 42, 237 (1978)]were performed on survival times transformed by the negative exponential transformation:
t=number of days an animal survived
T=duration of trial (15 days)
A continuity correction was used to account for daily observation:
Within each group, mice surviving through the trial period were assigned equally values of 0.9 and 1.0 to adjust for termination of the trial.
Average survival time per group was calculated from average corrected transformed survival times [fc (t)] as follows:
t avg=[T/log(0.1).[log(1-fc (t)]

[5] = system: Herpes simplex virus type 1 (HSV-1), strain Schooler; test: Oral treatment of intraperitoneal HSV-1 infection of mice (Example 16); format: in vivo, ICR/Ha mice
Description: as §2, with “(i.p.)” for “(ip)”, “LD50 s.” for “LD50.”, “7” for “4”, “treated by oral gavage” for “injected subcutaneously”, “with: 250 μg, 125 μg, 8 μg or 2 μg of (S)-9-(2,3-dihydroxy-1-propoxymethyl)guanine; 500 μg,” for “with:”, “racemic 9-(2,3-dihydroxy-1-propoxymethyl)guanine;” for “compounds A, B or C;”
(§3) The statistical analyses were carried out as described in Example 15.

[6] = system: Herpes simplex virus type 1 (HSV-1), strain Schooler; test: Oral treatment of intraperitoneal HSV-1 infection of mice (Example 17); format: in vivo, ICR/Ha mice; conditions: for Percent Survival: at 15 days
Description: Twenty gram ICR/Ha mice were injected intraperitoneally (i.p.) with 0.5 ml of a 10^-5 dilution of a stock preparation of Herpes Simplex virus type 1 (HSV-1), strain Schooler. This virus challenge infected mice with approximately 50 to 100 LD50. Starting immediately after virus infection and continuing twice daily for 7 days, each animal was treated by oral gavage in groups of 10 with: 500 μg, 125 μg, 31 μg or 8 μg of (S)-9-(2,3-dihydroxy-1propoxymethyl)guanine; 500 μg, 125 μg, 31 μg or 8 μg of acyclovir or placebo (physiological saline, pH 11.5). All compounds were solubilized in physiological saline, pH 11.5.
as §3

herpes viruses = test: antiviral activity against herpes viruses (general statement)
[7] = 125 μg/dose twice daily for 7 days, 12.5 mg/kg/day
[8] = 500 μg/dose twice daily for 7 days, 50 mg/kg/day

Nc1nc2c(ncn2COC[C@@H](O)CO)c(=O)[nH]1 [A, (S)-9-(2,3-dihydroxy-1-propoxymethyl)guanine]
minimal effective concentration [1]: 0.8 to 1.5 µg/mL
minimal effective concentration [2]: 3.1 µg/mL
fold more effective than B in protecting cell cultures against HSV-1 infection ([3]; A vs B, conclusion of Example 14 (Methods 1 and 2)): 10 to 25 fold
fold more active than C in protecting cell cultures against HSV-1 infection ([3]; A vs C, conclusion of Example 14 (Methods 1 and 2)): about 2 fold
EC50 ([3]; Human alphaherpesvirus 1, MRC5, 72 h, HSV-1 (Schooler), MRC-5 cells, 3 days, 50% reduction of plaque development, read-out: ED50 (the source's name)): 0.5 µg/mL (≈ 1.96 µM)
relative potency of A to C ([4]; parallel line analysis, not statistically significant): 2.3
relative potency of A to B ([4]; parallel line analysis, statistically significant): 5.3
Avg. Survival Time ([4]; 2 μg/dose twice daily for 4 days, 0.2 mg/kg/day, ^3 (all): not statistically different from placebo): 6.1 days
Percent Survival ([4]; 2 μg/dose twice daily for 4 days, 0.2 mg/kg/day, at 15 days): 0%
Avg. Survival Time ([4]; 8 μg/dose twice daily for 4 days, 0.8 mg/kg/day, ^3 (all): not statistically different from placebo): 6.7 days
Percent Survival ([4]; 8 μg/dose twice daily for 4 days, 0.8 mg/kg/day, at 15 days): 0%
Avg. Survival Time ([4]; 31 μg/dose twice daily for 4 days, 3.1 mg/kg/day, ^3 (all): not statistically different from placebo): 7.6 days
Percent Survival ([4]; 31 μg/dose twice daily for 4 days, 3.1 mg/kg/day, at 15 days): 10%
Avg. Survival Time ([4]; 125 μg/dose twice daily for 4 days, 12.5 mg/kg/day, ^3 (B, acyclovir): not statistically different from placebo): 10.7 days
Percent Survival ([4]; 125 μg/dose twice daily for 4 days, 12.5 mg/kg/day, at 15 days (acyclovir not at the same time)): 40%
Avg. Survival Time ([5]; 2 μg/dose twice daily for 7 days, 0.2 mg/kg/day, ^3 (all): not statistically different from placebo): 7.2 days
Percent Survival ([5]; 2 μg/dose twice daily for 7 days, 0.2 mg/kg/day, at 15 days): 0%
Avg. Survival Time ([5]; 8 μg/dose twice daily for 7 days, 0.8 mg/kg/day, ^3 (all): not statistically different from placebo): 7.2 days
Percent Survival ([5]; 8 μg/dose twice daily for 7 days, 0.8 mg/kg/day, at 15 days): 0%
Avg. Survival Time ([5]; 31 μg/dose twice daily for 7 days, 3.1 mg/kg/day, ^3 (all): not statistically different from placebo): 7.5 days
Percent Survival ([5]; 31 μg/dose twice daily for 7 days, 3.1 mg/kg/day, at 15 days (acyclovir not at the same time)): 0%
Avg. Survival Time ([5]; 125 μg/dose twice daily for 7 days, 12.5 mg/kg/day, ^3 (racemate, acyclovir): not statistically different from placebo): 10.2 days
Percent Survival ([5]; 125 μg/dose twice daily for 7 days, 12.5 mg/kg/day, at 15 days (acyclovir not at the same time)): 20%
Avg. Survival Time ([5]; 250 μg/dose twice daily for 7 days, 25 mg/kg/day): 9.8 days
Percent Survival ([5]; 250 μg/dose twice daily for 7 days, 25 mg/kg/day, at 15 days): 10%
protection over placebo-treated animals, as measured by average survival time ([5]; 12.5 mg/kg/day): conferred significant protection over placebo-treated animals
protection over placebo-treated animals, as measured by average survival time ([5]; 25 mg/kg/day): conferred significant protection over placebo-treated animals
Avg. Survival Time ([6]; 8 μg/dose twice daily for 7 days, 0.8 mg/kg/day, ^b (all): not statistically different from placebo): 6.2 days
Percent Survival ([6]; 8 μg/dose twice daily for 7 days, 0.8 mg/kg/day): 0%
Avg. Survival Time ([6]; 31 μg/dose twice daily for 7 days, 3.1 mg/kg/day, ^b (all): not statistically different from placebo): 6.9 days
Percent Survival ([6]; 31 μg/dose twice daily for 7 days, 3.1 mg/kg/day): 0%
Avg. Survival Time [6, 7]: 8.1 days
Percent Survival [6, 7]: 0%
Avg. Survival Time [6, 8]: 12.9 days
Percent Survival [6, 8]: 30%
protection over placebo-treated animals, as measured by average survival time ([6]; 12.5 mg/kg/day): conferred significant protection over placebo-treated animals
protection over placebo-treated animals, as measured by average survival time ([6]; 50 mg/kg/day): conferred significant protection over placebo-treated animals
relative potency to acyclovir ([6]; statistically significant): 2.8
antiviral (antiherpetic) activity (herpes viruses; general statement in words): substantial antiviral activity against various herpes viruses; also recorded: potent antiherpetic activity
antiviral (antiherpetic) activity compared with acyclovir (herpes viruses; vs 9-(2-hydroxyethoxymethyl)guanine (acyclovir)): significantly greater antiviral activity; also recorded: much more potent
antiherpetic activity compared with the racemic mixture or the (R)-enantiomer (herpes viruses; vs racemic mixture or (R)-enantiomer): better than the corresponding racemic mixture or the (R)-enantiomer
